{"source": "patent US4859696A", "about": "“Precutaneous absorption accelerator and preparation containing same” (Kao Corporation, priority 1984, dated 1989)", "key": {"[1]": {"assay": "Change in blood sugar level after rectal administration of insulin solutions to rabbits", "format": "in vivo, rabbit (Japanese white male)", "experimental": "Japanese white male rabbits weighing about 2.5 kg, fasted for 24 hours, were fixed at the back, and each of solutions shown in Table 1 was administered to the rectum of about 2.5 cm from the anus using a tube. Cannule was inserted into the femoral vein of the hind leg to collect about 0.2 ml each of blood in every fixed time interval. Blood sugar level was measured using destrostick. Change in blood sugar level was determined with the passage of time, as the blood sugar level prior to administration being rendered 100%."}, "[2]": {"assay": "Test of percutaneous absorption of indomethacin", "format": "in vivo, rabbit (Japanese white female)", "details": "as compared to the comparative preparations", "experimental": "Topical agents containing indometacin shown below were prepared and percutaneous absorption was examined with the topical agents.\nSeven (7) Japanese white female rabbits weighing about 3 kg were used as one group. The topical agents of the present invention and the comparative preparations were applied onto the normal abdominal skin (10 cm×14 cm) of the rabbits in each group, from which the body hair was cut, respectively, at a dose corresponding to 20 mg of indomethacin. Blood was collected from the vein of the ear after 4, 10 and 20 hours and, blood concentration of indomethacin was measured."}, "carrageenin caused edema": {"system": "carrageenin caused edema", "assay": "Inhibition of carrageenin caused edema on the paw of the rat", "format": "in vivo, rat (Wistar male)", "details": "as compared to the comparative preparation", "experimental": "With respect to the topical agents of the present invention, the pharmacological effect was examined according to the inhibition of carrageenin caused edema on the paw of the rat.\nWistar male 10 rats, weighing about 110 g, were used as one group. The volume of the right rear paw of the rats in each group was previously measured using a branched glass container. A 1% carrageenin aqueous solution was subcutaneously injected to the right rear paw sole in a dose of 0.125 ml. Immediately thereafter 0.3 g of indomethacin topical agents were applied to the skin of the right rear paw sole. In the control group, carrageenin alone was injected. Then, the volume of the rear paw was measured every 90 minutes, which was continued until 6 hours after. The rate of edema and the inhibition rate of edema were calculated as described below. [formula]"}, "[3]": {"assay": "Test for percutaneous absorption of methyl salicylate (cataplasms)", "format": "in vivo, rabbit (Japanese white female)", "details": "as compared to the cataplasm for comparison", "experimental": "Cataplasms shown below were prepared and, the percutaneous absorption of methyl salicylate was tested.\nSeven (7) Japanese white female rabbits weighing about 3 kg were used as one group. […] Blood was collected from the vein of the femur after 3, 6, 10, 20 and 30 hours and, blood concentration of methyl salicylate was measured."}, "[4]": {"details": "15 mins., this invention, ether derivative 0.1 g with insulin 10/kg, saline 0.65 g, ethanol 0.25 g"}, "[5]": {"details": "30 mins., this invention, ether derivative 0.1 g with insulin 10/kg, saline 0.65 g, ethanol 0.25 g"}, "[6]": {"details": "45 mins., this invention, ether derivative 0.1 g with insulin 10/kg, saline 0.65 g, ethanol 0.25 g"}, "[7]": {"details": "60 mins., this invention, ether derivative 0.1 g with insulin 10/kg, saline 0.65 g, ethanol 0.25 g"}, "[8]": {"details": "90 mins., this invention, ether derivative 0.1 g with insulin 10/kg, saline 0.65 g, ethanol 0.25 g"}, "[9]": {"details": "120 mins., this invention, ether derivative 0.1 g with insulin 10/kg, saline 0.65 g, ethanol 0.25 g"}}, "data": [{"compound": "Insulin: Insulin 10/kg in 25% Ethanol solution (control of Table 1)", "values": [{"measurement": "Rate of Change in Blood Sugar Level before Administration", "setting": "[1]; 15 mins., control, insulin 10/kg in 25% ethanol solution", "result": "+5.0%"}, {"measurement": "Rate of Change in Blood Sugar Level before Administration", "setting": "[1]; 30 mins., control, insulin 10/kg in 25% ethanol solution", "result": "+12.9%"}, {"measurement": "Rate of Change in Blood Sugar Level before Administration", "setting": "[1]; 45 mins., control, insulin 10/kg in 25% ethanol solution", "result": "+11.5%"}, {"measurement": "Rate of Change in Blood Sugar Level before Administration", "setting": "[1]; 60 mins., control, insulin 10/kg in 25% ethanol solution", "result": "+4.8%"}, {"measurement": "Rate of Change in Blood Sugar Level before Administration", "setting": "[1]; 90 mins., control, insulin 10/kg in 25% ethanol solution", "result": "+1.5%"}, {"measurement": "Rate of Change in Blood Sugar Level before Administration", "setting": "[1]; 120 mins., control, insulin 10/kg in 25% ethanol solution", "result": "+2.7%"}]}, {"compound": "CCCCCCCCCCCCOCC(COC)OCC(O)CO", "note": "(stereo not drawn) [1-O-n-dodecyl-3-O-methyl-2-O-2',3'-dihydroxypropylglycerol]", "values": [{"measurement": "Rate of Change in Blood Sugar Level before Administration", "setting": "[1]; 15 mins., control, ether derivative 1 g", "result": "+6.5%"}, {"measurement": "Rate of Change in Blood Sugar Level before Administration", "setting": "[1]; 15 mins., this invention, ether derivative 0.05 g with insulin 10/kg, saline 0.70 g, ethanol 0.25 g", "result": -13.4, "unit": "%"}, {"measurement": "Rate of Change in Blood Sugar Level before Administration", "setting": "[1]; [4]", "result": -19.2, "unit": "%"}, {"measurement": "Rate of Change in Blood Sugar Level before Administration", "setting": "[1]; 30 mins., control, ether derivative 1 g", "result": "+10.2%"}, {"measurement": "Rate of Change in Blood Sugar Level before Administration", "setting": "[1]; 30 mins., this invention, ether derivative 0.05 g with insulin 10/kg, saline 0.70 g, ethanol 0.25 g", "result": -18.6, "unit": "%"}, {"measurement": "Rate of Change in Blood Sugar Level before Administration", "setting": "[1]; [5]", "result": -28.9, "unit": "%"}, {"measurement": "Rate of Change in Blood Sugar Level before Administration", "setting": "[1]; 45 mins., control, ether derivative 1 g", "result": "+9.8%"}, {"measurement": "Rate of Change in Blood Sugar Level before Administration", "setting": "[1]; 45 mins., this invention, ether derivative 0.05 g with insulin 10/kg, saline 0.70 g, ethanol 0.25 g", "result": -25.2, "unit": "%"}, {"measurement": "Rate of Change in Blood Sugar Level before Administration", "setting": "[1]; [6]", "result": -32.7, "unit": "%"}, {"measurement": "Rate of Change in Blood Sugar Level before Administration", "setting": "[1]; 60 mins., control, ether derivative 1 g", "result": "+9.5%"}, {"measurement": "Rate of Change in Blood Sugar Level before Administration", "setting": "[1]; 60 mins., this invention, ether derivative 0.05 g with insulin 10/kg, saline 0.70 g, ethanol 0.25 g", "result": -27.6, "unit": "%"}, {"measurement": "Rate of Change in Blood Sugar Level before Administration", "setting": "[1]; [7]", "result": -28.0, "unit": "%"}, {"measurement": "Rate of Change in Blood Sugar Level before Administration", "setting": "[1]; 90 mins., control, ether derivative 1 g", "result": "+9.5%"}, {"measurement": "Rate of Change in Blood Sugar Level before Administration", "setting": "[1]; 90 mins., this invention, ether derivative 0.05 g with insulin 10/kg, saline 0.70 g, ethanol 0.25 g", "result": -25.8, "unit": "%"}, {"measurement": "Rate of Change in Blood Sugar Level before Administration", "setting": "[1]; [8]", "result": -19.5, "unit": "%"}, {"measurement": "Rate of Change in Blood Sugar Level before Administration", "setting": "[1]; 120 mins., control, ether derivative 1 g", "result": "+10.2%"}, {"measurement": "Rate of Change in Blood Sugar Level before Administration", "setting": "[1]; 120 mins., this invention, ether derivative 0.05 g with insulin 10/kg, saline 0.70 g, ethanol 0.25 g", "result": -22.4, "unit": "%"}, {"measurement": "Rate of Change in Blood Sugar Level before Administration", "setting": "[1]; [9]", "result": -18.2, "unit": "%"}, {"measurement": "percutaneous absorption of indomethacin (in words)", "setting": "[2]", "result": "extremely high percutaneous absorption of indomethacin"}, {"measurement": "rate of preventing the edema / pharmacological effect of indomethacin (in words)", "setting": "carrageenin caused edema", "result": "extremely high pharmacological effect of indomethacin"}, {"measurement": "percutaneous absorption of methyl salicylate (in words)", "setting": "[3]", "result": "extremely high percutaneous absorption of methyl salicylate"}]}, {"compound": "1-O-methyl-branched isostearyl-3-O-methyl-2-O-2',3'-dihydroxypropylglycerol", "values": [{"measurement": "Rate of Change in Blood Sugar Level before Administration", "setting": "[1]; [4]", "result": -17.8, "unit": "%"}, {"measurement": "Rate of Change in Blood Sugar Level before Administration", "setting": "[1]; [5]", "result": -18.3, "unit": "%"}, {"measurement": "Rate of Change in Blood Sugar Level before Administration", "setting": "[1]; [6]", "result": -24.5, "unit": "%"}, {"measurement": "Rate of Change in Blood Sugar Level before Administration", "setting": "[1]; [7]", "result": -28.6, "unit": "%"}, {"measurement": "Rate of Change in Blood Sugar Level before Administration", "setting": "[1]; [8]", "result": -21.9, "unit": "%"}, {"measurement": "Rate of Change in Blood Sugar Level before Administration", "setting": "[1]; [9]", "result": -19.8, "unit": "%"}]}]}
